Legend:
[1] = Release of drug from hydrogel lens in contact with the cornea; assay type: in vivo; conditions: after 2 hours of contact with the cornea; lens with about 700 ng beclomethasone or 450 ng prednisolone
Description: In some embodiments, such as with classes of corticosteroids, a single hydrogel contact lens may be loaded with about […] of active compound. For instance, experiments have shown that an effective concentration of beclomethasone can be delivered to the posterior segment by treating with a lens that includes about 700 ng of the compound. […] In each case, about 95% of the drug exited the lens after 2 hours of contact with the cornea. It is believed that the consistent pore size of the hydrogels provides for a consistent delivery rate of a variety of compounds.

[2] = rabbit, in vivo
Description: A series of experiments were designed to determine the efficacy of delivery to the posterior segment from a hydrogel positioned on the cornea.
In the first experiment, rabbits were treated by placing hydrogel lenses on the corneas of the animals for a period of 3 hours. Each lens was infused with about 450 ng of prednisolone incorporated therein. The lenses were placed onto the eyes of anesthetized animals (closed eye period) for the three hour period after which time the lenses were removed. The procedure was repeated about every other day or every three days until 5 applications had been completed.
After completion of the five applications, each eye of the animal was analyzed for prednisolone concentration using LC/MS/MS. The portion of the posterior segment that was analyzed included macula, retina, surrounding muscle, nerve and circulatory, including connective tissues and cells. Sample size typically was about 800 mg. […] The limit of quantification for prednisolone was 0.5 ng/mL and for prednisone was 0.05 ng/mL.

Structure (SMILES)	drug exited the lens [1]	average concentration in the posterior segment relative to the amount provided in the hydrogel lenses [2]
C[C@H]1C[C@H]2[C@@H]3CCC4=CC(=O)C=C[C@]4(C)[C@@]3(Cl)[C@@H](O)C[C@]2(C)[C@@]1(O)C(=O)CO [Beclomethasone, beclomethasone]	about 95%	–
C[C@]12C=CC(=O)C=C1CC[C@@H]1[C@@H]2[C@@H](O)C[C@@]2(C)[C@H]1CC[C@]2(O)C(=O)CO [Prednisolone, prednisolone]	about 95%	greater than 10%
